Assay results from PMC6778101 (Nature Communications, 2019).
Where two headings read alike, the source gives them in different places.

Assays:
E. coli K-12 BW25113 = assay: microbe, parasite or virus in culture; format: cell-based, Escherichia coli
From the text: Unless otherwise indicated, Minimal Salt (MS) medium was used in all experiments, including the laboratory evolution experiments. In line with previous, methodologically relevant laboratory evolution studies, the physical conditions (including the medium) were the same during the course of laboratory evolution and all forthcoming assays on the resulting resistant lines (e.g. MIC measurements). We previously optimized this medium for studying AMPs (1 g L^−1 (NH4)2SO4, 3 g L^−1 KH2PO4 and 7 g L^−1 K2HPO4 supplemented with 0.1 mM MgSO4, 0.54 µg mL^−1 FeCl3, 1 µg mL^−1 thiamine hydrochloride, 0.2% Casamino acids and 0.2% glucose)[19]. This medium is highly controlled and provides a reproducible environment for experimental evolution experiments. All components were obtained from Sigma-Aldrich.
(§1) MICs were determined using a standard serial broth dilution technique. Briefly, 11-step serial dilutions were prepared in 96-well microtiter plates with three replicates per strain and antimicrobial compound. Each experiment was repeated at least twice. 5 × 10^5 cells/mL were inoculated into each well, and the plates were incubated at 30 °C in case of E. coli K-12 BW25113, and its antibiotic and AMP-adapted lines, or 37 °C in case of the other bacterial species. […] Cell growth was monitored by measuring the optical density (OD600 value, Biotek Synergy 2 microplate reader was used for this purpose). […] Relative MIC was calculated as follows: MICrelative = MICevolved/MICcontrol.

[1] = tested on: E. coli K-12 BW25113 carrying ASKA plasmids; assay: microbe, parasite or virus in culture; format: cell-based, Escherichia coli; conditions: for MIC: Escherichia coli; for MIC / MIC value of E. coli K-12 BW25113 carrying the empty plasmid of the ASKA library / MIC value of E. coli K-12 BW25113 carrying the pooled plasmids of the ASKA library: MS medium + 10 µg mL−1 CHL + 500 µM IPTG, 5 × 10^5 cells, 16–18 h, 37 °C
From the text: Bacterial gene amplification generates extensive genetic variation that can provide drug resistance[37],[38]. As gene amplification events tend to be genetically unstable and reduce bacterial fitness, they are transient in nature. Using the ASKA library, which comprises each E. coli ORF cloned into an expression vector[40], we have conducted a global survey to evaluate whether artificially amplified genes provide resistance to any of the 14 AMPs and 11 antibiotics tested. As chloramphenicol (CHL) was used as a selection marker for the ASKA plasmid, this antibiotic was not tested in this screen. E. coli K-12 BW25113 cells were transformed with the pooled plasmids of the ASKA library, and the genetically mixed populations were exposed to increasing levels of AMP or antibiotic stresses, respectively. In all cases, the employed AMP or antibiotic dosages were above the MIC of the wild type. For each drug, we identified the MIC provided in the pooled ASKA plasmid library, and compared it to the MIC of the wild-type strain carrying the empty ASKA plasmid.
The ASKA library (a complete set of E. coli K-12 ORF archive) includes every E. coli ORF cloned into an expression vector (pCA24N)[65]. Prior to screening, the ASKA plasmid collection was pooled and transformed into E. coli K-12 BW25113 strain[66]. The plasmid pool was created by pooling an equal aliquot of cells, each carrying different members of the ASKA library, followed by plasmid miniprep. Next, the plasmid pool was electroporated into E. coli K-12 BW25113 competent cells. […] For the MICs measurements 500 000 cells were inoculated in each well which represents ~100 times coverage of each library member. […] Prior to the measurements the cell population containing the pooled overexpression library or the control strain containing the empty vector were grown in three replicates in LB medium supplemented with 20 µg/mL CHL. As the culture reached high density (i.e., OD600 > 0.8), expression of the plasmid was induced by 50 µM IPTG for 1 h. Following induction, 5 × 10^5 bacterial cells were inoculated in three replicates into each well of the 96-well plate and incubated for 16–18 h at 37 °C. Following incubation the MIC values were determined by measuring optical densities in a plate reader (Biotek Synergy).

[2] = tested on: E. coli K-12 BW25113 bearing the metagenomic plasmid library; assay: Functional metagenomic screen of a soil library, gradient plate selection; format: cell-based, Escherichia coli; conditions: soil metagenomic library, 1.5–5 kb fragments, gradient plate, 30 °C, 24 h
[3] = tested on: E. coli K-12 BW25113 carrying single mutations; assay: MIC change in single-mutation strains (basS L194R, mlaD a342del, waaY M1†); format: cell-based, Escherichia coli; conditions: mutations inserted individually into E. coli K-12 BW25113
E. coli ATCC 25922 = format: cell-based, Escherichia coli; conditions: starting strain; broth dilution, MS medium, 37 °C, 18 h
Description: (§2) Unless otherwise indicated, we used E. coli K-12 BW25113 in all high-throughput experiments. To investigate the impact of mutation rate on evolution of AMP resistance, we initiated laboratory evolution with a mutator strain E. coli mutD5 that carries mutations in the dnaQ gene (L73W and A164V).
(§3) MICs were determined using a standard serial broth dilution technique. Briefly, 11-step serial dilutions were prepared in 96-well microtiter plates with three replicates per strain and antimicrobial compound. Each experiment was repeated at least twice. 5 × 10^5 cells/mL were inoculated into each well, and the plates were incubated at 30 °C in case of E. coli K-12 BW25113, and its antibiotic and AMP-adapted lines, or 37 °C in case of the other bacterial species. Plates were shaken at 300 r.p.m. during incubation for 24 and 18 h, respectively. Cell growth was monitored by measuring the optical density (OD600 value, Biotek Synergy 2 microplate reader was used for this purpose). […] Relative MIC was calculated as follows: MICrelative = MICevolved/MICcontrol.

S. enterica LT2 = format: cell-based, Salmonella enterica subsp. enterica serovar Typhimurium; conditions: starting strain; broth dilution, MS medium, 37 °C, 18 h
Description: as §2, §3

K. pneumoniae ATCC 10031 = format: cell-based, Klebsiella pneumoniae; conditions: starting strain; broth dilution, MS medium, 37 °C, 18 h
Description: as §2, §3

A. baumannii ATCC 17978 = format: cell-based, Acinetobacter baumannii; conditions: starting strain; broth dilution, MS medium, 37 °C, 18 h
Description: as §2, §3

[4] = tested on: E. coli ATCC 25922, S. enterica LT2, K. pneumoniae ATCC 10031, A. baumannii ATCC 17978; assay: Laboratory evolution in pathogenic bacteria, statements for all four pathogens together; format: cell-based
From the text: The tested pathogens initially sensitive to the AMPs and the antibiotics included Escherichia coli (ATCC® 25922™) (abbreviated as E. coli ATCC 25922), Salmonella enterica subsp. enterica serovar Typhimurium LT2 (abbreviated as S. enterica LT2), Klebsiella pneumoniae subsp. pneumoniae (Schroeter) Trevisan (ATCC® 10031™) (abbreviated as K. pneumoniae ATCC 10031) and Acinetobacter baumannii Bouvet and Grimont (ATCC® 17978™) (abbreviated as A. baumannii ATCC 17978).
The evolutionary protocol was designed to avoid population extinction and to ensure that populations with the highest level of resistance were propagated further. Starting with a subinhibitory drug concentration (Supplementary Data 8), resulting in ~50% growth inhibition, 10 parallel populations per drug were allowed to grow in Minimal Salts medium for 72 h and 300 r.p.m. E. coli K-12 BW25113 and E. coli mutD5 populations were incubated at 30 °C, while E. coli ATCC 25922, S. enterica LT2, K. pneumonia ATCC 10031, and A. baumannii ATCC 17978 were incubated at 37 °C. […] Prior to each transfer, cell growth was monitored by measuring the optical density at 600 nm (OD600 value, Biotek Synergy 2 microplate reader). Only populations with the highest drug concentration (and reaching OD600 > 0.2) were selected for further evolution. A chess-board layout was used on the plate to monitor potential cross-contamination events. […] E. coli mutD5 was adapted to TPII, also in 10 parallel evolving populations.
as §1, with “twice.” for “twice. 5 × 10^5 cells/mL were inoculated into each well, and the plates were incubated at 30 °C in case of E. coli K-12 BW25113, and its antibiotic and AMP-adapted lines, or 37 °C in case of the other bacterial species.”

E.coli K-12 BW25113 = format: cell-based, Escherichia coli; conditions: for MIC (freshly prepared AMP): plates inoculated immediately; for MIC (pre-incubated AMP): plates pre-incubated 72 hours before inoculation
Description: as §3
Supplementary Table 7- Effect of incubation time on the minimum inhibitory concentration (MIC) of AMPs. We tested whether the prolonged incubation time can affect the MIC of AMPs. To test this, two sets of AMP containing MIC plates were prepared in parallel. The first set was immediately inoculated with E.coli K-12 BW25113, while the second set was pre-incubated 72 hours before inoculation with the […]
observed in the MIC between freshly prepared and pre-incubated plates. […]

[5] = Escherichia coli, BW25113, 24 h, read-out: MIC
[6] = BW25113, Replicate 1, read-out: MIC value of E. coli K-12 BW25113 carrying the empty plasmid of the ASKA library
[7] = BW25113, Replicate 1, read-out: MIC value of E. coli K-12 BW25113 carrying the pooled plasmids of the ASKA library
[8] = BW25113, Replicate 2, read-out: MIC value of E. coli K-12 BW25113 carrying the empty plasmid of the ASKA library
[9] = BW25113, Replicate 2, read-out: MIC value of E. coli K-12 BW25113 carrying the pooled plasmids of the ASKA library
[10] = BW25113, Replicate 3, read-out: MIC value of E. coli K-12 BW25113 carrying the empty plasmid of the ASKA library
[11] = BW25113, Replicate 3, read-out: MIC value of E. coli K-12 BW25113 carrying the pooled plasmids of the ASKA library
[12] = starting wild-type strain of the evolution experiment, broth dilution, MS medium, 5 × 10^5 cells/mL, 30 °C, 24 h, MIC = OD600 < 0.05
[13] = time allowed for bacterial growth 24 hours
[14] = time allowed for bacterial growth 48 hours
[15] = time allowed for bacterial growth 72 hours

Compound | MIC (E. coli K-12 BW25113; [5]) | MIC [1, 6] | MIC [1, 7] | MIC [1, 8] | MIC [1, 9] | MIC [1, 10] | MIC [1, 11] | Number of resistant contig [2] | MIC (E. coli K-12 BW25113; [12]) | MIC value of E. coli K-12 BW25113 carrying the empty plasmid of the ASKA library ([1]; Replicate 1) | MIC value of E. coli K-12 BW25113 carrying the pooled plasmids of the ASKA library ([1]; Replicate 1) | MIC value of E. coli K-12 BW25113 carrying the empty plasmid of the ASKA library ([1]; Replicate 2) | MIC value of E. coli K-12 BW25113 carrying the pooled plasmids of the ASKA library ([1]; Replicate 2) | MIC value of E. coli K-12 BW25113 carrying the empty plasmid of the ASKA library ([1]; Replicate 3) | MIC value of E. coli K-12 BW25113 carrying the pooled plasmids of the ASKA library ([1]; Replicate 3) | other results
NC[C@H]1O[C@H](O[C@H]2[C@H](O)[C@@H](O[C@H]3O[C@H](CO)[C@@H](O)[C@H](N)[C@H]3O)[C@H](N)C[C@@H]2N)[C@H](N)C[C@@H]1O [TOB, Tobramycin] | 3.4 µg/mL | 1.49 µg/mL | 2.15 µg/mL | 1.24 µg/mL | 2.58 µg/mL | 1.49 µg/mL | 2.58 µg/mL | 13 |  |  |  |  |  |  |  | 
COc1cc(Cc2cnc(N)nc2N)cc(OC)c1OC [TRM, Trimethoprim] |  | 2 µg/mL | 128 µg/mL | 2 µg/mL | 64 µg/mL | 2 µg/mL | 64 µg/mL | 11 |  |  |  |  |  |  |  | MIC (E. coli K-12 BW25113; Escherichia coli, BW25113, 24 h): 5.2 µg/mL; increment in resistance level by the pooled ASKA library [1]: 32 fold
O=C(N[C@H](CO)[C@H](O)c1ccc([N+](=O)[O-])cc1)C(Cl)Cl [CHL, Chloramphenicol] | 6.9 µg/mL |  |  |  |  |  |  | 7 |  |  |  |  |  |  |  | 
GIINTLQKYYRVRGGRAVLSLPKEEQIGKSTRGRKRRKK [HBD3, Human beta-defensin-3, clinically relevant antimicrobial peptide with human origin] |  |  |  |  |  |  |  |  | 1500 µg/mL | 195.36 µg/mL | 405.09 µg/mL | 195.36 µg/mL | 337.58 µg/mL | 281.31 µg/mL | 281.31 µg/mL | resistance conferred by single mutations basS L194R, mlaD a342del, waaY M1† (in words) [3]: conferred resistance
KTKKKFLKKT [PXB, Polymyxin B, AMP used as a last-resort drug in the treatment of multidrug-resistant Gram-negative bacterial infections; from Sigma-Aldrich] |  |  |  |  |  |  |  |  | 2.5 µg/mL | 3.18 µg/mL | 3.18 µg/mL | 3.18 µg/mL | 3.18 µg/mL | 3.18 µg/mL | 3.18 µg/mL | MIC (E. coli ATCC 25922): 6 µg/mL; MIC (S. enterica LT2): 8 µg/mL; MIC (K. pneumoniae ATCC 10031): 2 µg/mL; MIC (A. baumannii ATCC 17978): 2 µg/mL; resistance after laboratory evolution in pathogens (in words) ([4]; all four pathogenic species): a high level of PXB-resistance has emerged in all pathogens studied; increment of resistance level compared to the corresponding wild-type strain ([4]; certain lines, highest value over the four pathogens): ≤ 20,000 times; MIC (freshly prepared AMP) (E.coli K-12 BW25113; [13]): 4.2 µg/mL; MIC (freshly prepared AMP) (E.coli K-12 BW25113; [14]): 4.2 µg/mL; MIC (freshly prepared AMP) (E.coli K-12 BW25113; [15]): 4.2 µg/mL; MIC (pre-incubated AMP) (E.coli K-12 BW25113; [13]): 5 µg/mL; MIC (pre-incubated AMP) (E.coli K-12 BW25113; [14]): 5 µg/mL; MIC (pre-incubated AMP) (E.coli K-12 BW25113; [15]): 5 µg/mL
